# Experimental data from US20250288603A1, “ANIMAL FOOD COMPOSITION COMPRISING A SOURCE OF GLYCYRRHIZIN” (MARS, INCORPORATED, priority 2022, published 2025).
# Tests used:
# [1] = dogs; cited from earlier work
# healthy adult dogs [2] = assay: Glycyrrhizin safety study: systolic blood pressure (oscillometric method); type: in vivo, dog; details: for effect on blood pressure, D0 versus any later time point: adult dogs, 0.2, 0.4 and 0.6 mg/kg Bwt/day, 28 days each; for overall mean systolic blood pressure: dogs
# Text: (§1) Dogs. Sixteen privately owned healthy adult dogs, both male and female, were included in the study. In particular, the dogs were Beagles, Brittany spaniels or Dachshunds weighing between 5 and 21 kg. Twelve dogs were females and four dogs were males.
# (§2) Glycyrrhizin Source. The glycyrrhizin source was provided by a licorice root extract comprising 12% glycyrrhizin formulated in gelatin capsules. The licorice root extract was commercially obtained from Naturex (Avignon, France), product reference DAB40178.
# (§3) Commercially available pharmaceutical grade gelatin capsules (Capsuline, Dania Beach, Florida, US) were filled to capacity with precisely weight mixtures of licorice powder and 100% pure maltodextrin powder (Bulk Powders, Colchester, UK). The weighed combinations of licorice and maltodextrin powders were prepared in such a way that, when mixed together and placed in the capsules, provided the dogs with daily glycyrrhizin doses according to the schedule of 0.2 mg/kg Bwt/day, followed by 0.4 mg/kg Bwt/day, followed by 0.6 mg/kg Bwt/day.
# (§4) Dosage. The doses to be administered to each dog were calculated based on five different bodyweight groups. Separate capsules were weighed out for each group. The licorice root extract was mixed with maltodextrin order to deliver the same volume of overall powdered material to each dog. Capsules were fed to the dogs inside a meatball of wet petfood.
# (§5) In total, three different doses of glycyrrhizin were fed to the dogs, in each case for 28 days. These dosages were 0.2 mg/kg of Bwt/day, 0.4 mg/kg of Bwt/day, and 0.6 mg/kg of Bwt/day.
# (§6) Each of the dogs underwent the following protocol cycle, which was repeated for each of the tested concentrations. The first cycle was dosed at 0.2 mg of glycyrrhizin (Gly)/kg Bwt/day. The second cycle was dosed at 0.4 mg Gly/kg Bwt/day. The third cycle was dosed at 0.6 mg Gly/kg Bwt/day.
# […]: Baseline measurements were taken: blood pressure and potassium, sodium and calcium, creatinine and aldosterone concentrations in the blood and urine.
# Day 0: Dosing of licorice began (the concentration of glycyrrhizin is adapted according to the first, second or third cycle of the protocol, as indicated above). One dose was provided to each dog per day, with their morning meal.
# Days 1-27: One dose was provided to each dog per day, with their morning meal.
# (§7) Days 2, 4, 7, 14, 21 and 28: Blood pressure and potassium, sodium and calcium, creatinine and aldosterone concentrations in the blood and urine measurements were taken.
# Day 28: Washout began and the dogs returned to their maintenance diet alone, i.e., no more licorice was fed to them. The washout period lasted two weeks. At days 34 and 41 blood pressure and potassium, sodium and calcium, creatinine and aldosterone concentrations in the blood and urine measurements were taken again.
# Protocol Details. The licorice root extract was dosed according to the given glycyrrhizin (Gly) concentrations for each cycle of the protocol in sequence: 0.2 mg/kg Bwt/day, 0.4 mg/kg Bwt/day, and 0.6 mg/kg Bwt/day.
# Blood pressure was measured for each animal on multiple occasions, the first reading being discarded. BP was measured via the Oscillometric method. Each measurement, if it was shown that a dog's average blood pressure has risen to a potentially deleterious level (normally >160 mmgHg), could result in removal of a dog from the study (temporarily or permanently), according to veterinarian's discretion. All dogs were habituated to the Oscillometic device and the process of BP measurement before the start of the study. If there was evidence of stress for any dog before or during the BP procedure, the procedure for that dog was stopped and restarted when the dog was calmed again. Where necessary a dog could be given interim intensive habituation. […] Typical blood pressure ranges for the 3 breeds used were known and were considered when judging the normality of the BP measurements taken during the study. […]
# healthy adult dogs [3] = assay: Glycyrrhizin safety study: plasma aldosterone concentration; type: in vivo, dog; details: adult dogs, 0.2, 0.4 and 0.6 mg/kg Bwt/day, 28 days each
# Text: as §1, §2
# Commercially available pharmaceutical grade gelatin capsules (Capsuline, Dania Beach, Florida, US) were filled to capacity with precisely weight mixtures of licorice powder and 100% pure maltodextrin powder (Bulk Powders, Colchester, UK). […]
# Dosage. The doses to be administered to each dog were calculated based on five different bodyweight groups. […]
# Small volume blood samples (4 ml) were taken on the days indicated in the protocol description above in order to determine blood potassium, sodium and calcium, creatinine and aldosterone concentration. […] Urinary creatinine concentrations were also measured so that Fractional Excretion Rate (FER) for sodium, potassium and calcium could be calculated. […]
# healthy adult dogs [4] = assay: Glycyrrhizin safety study: fractional potassium excretion; type: in vivo, dog; details: for effect on fractional potassium excretion, D0 versus any later time point: adult dogs, 0.2, 0.4 and 0.6 mg/kg Bwt/day, 28 days each; for overall mean fractional potassium excretion: dogs
# Text: as §1, §2, §3, §4, §5, §6, §7
# Small volume blood samples (4 ml) were taken on the days indicated in the protocol description above in order to determine blood potassium, sodium and calcium, creatinine and aldosterone concentration. Free catch urine (minimum 3 ml) was conducted on each day as indicated above in order to determine concentrations of urinary potassium, sodium and calcium. Urinary creatinine concentrations were also measured so that Fractional Excretion Rate (FER) for sodium, potassium and calcium could be calculated.
# FER is calculated according to the equation: […]
# Statistics: A linear mixed model was used for assessing the effect of Diet (Glycyrrhizin dose). Animal was modelled as random term. Tukey HSD was used for alpha correction for multiple comparisons. Level of significance was set at 5% for two-sided test.
# Fractional Potassium Excretion. The results are expressed in percentage of the potassium excreted in the urine as compared to the amount of potassium filtered and retained by the kidneys.
# [5] = 0.2 mg Gly/kg Bwt/day oral, Day 0
# [6] = 0.2 mg Gly/kg Bwt/day oral, Day 2
# [7] = 0.2 mg Gly/kg Bwt/day oral, Day 4
# [8] = 0.2 mg Gly/kg Bwt/day oral, Day 7
# [9] = 0.2 mg Gly/kg Bwt/day oral, Day 14
# [10] = 0.2 mg Gly/kg Bwt/day oral, Day 21
# [11] = 0.2 mg Gly/kg Bwt/day oral, Day 28
# [12] = 0.4 mg Gly/kg Bwt/day oral, Day 0
# [13] = 0.4 mg Gly/kg Bwt/day oral, Day 2
# [14] = 0.4 mg Gly/kg Bwt/day oral, Day 4
# [15] = 0.4 mg Gly/kg Bwt/day oral, Day 7
# [16] = 0.4 mg Gly/kg Bwt/day oral, Day 14
# [17] = 0.4 mg Gly/kg Bwt/day oral, Day 21
# [18] = 0.4 mg Gly/kg Bwt/day oral, Day 28
# [19] = 0.6 mg Gly/kg Bwt/day oral, Day 0
# [20] = 0.6 mg Gly/kg Bwt/day oral, Day 2
# [21] = 0.6 mg Gly/kg Bwt/day oral, Day 4
# [22] = 0.6 mg Gly/kg Bwt/day oral, Day 7
# [23] = 0.6 mg Gly/kg Bwt/day oral, Day 14
# [24] = 0.6 mg Gly/kg Bwt/day oral, Day 21
# [25] = 0.6 mg Gly/kg Bwt/day oral, Day 28
compound,measurement,setting,value
"CC1(C)[C@@H](O[C@H]2O[C@H](C(=O)O)[C@@H](O)[C@H](O)[C@H]2O[C@@H]2O[C@H](C(=O)O)[C@@H](O)[C@H](O)[C@H]2O)CC[C@]2(C)[C@H]3C(=O)C=C4[C@@H]5C[C@@](C)(C(=O)O)CC[C@]5(C)CC[C@@]4(C)[C@]3(C)CC[C@@H]12 [Gly, glycyrrhizin]",Presumed Safe Intake (PSI),[1],1 mg/kg of complete feed
same,"Presumed Safe Intake (PSI), estimated amount per bodyweight",[1],~0.02 mg/kg of bodyweight (Bwt) per day
same,"Presumed Safe Intake (PSI), estimated daily amount",[1],~0.3 mg/day
same,"effect on blood pressure, D0 versus any later time point",healthy adult dogs [2],no significant difference
same,"effect on blood pressure, D0 versus any later time point",healthy adult dogs [2]; listed as Glycyrrhizin,no significant impact
same,overall mean systolic blood pressure,healthy adult dogs [2]; [5],120 mmHg
same,overall mean systolic blood pressure,healthy adult dogs [2]; [6],127 mmHg
same,overall mean systolic blood pressure,healthy adult dogs [2]; [7],125 mmHg
same,overall mean systolic blood pressure,healthy adult dogs [2]; [8],126 mmHg
same,overall mean systolic blood pressure,healthy adult dogs [2]; [9],126 mmHg
same,overall mean systolic blood pressure,healthy adult dogs [2]; [10],122 mmHg
same,overall mean systolic blood pressure,healthy adult dogs [2]; [11],121 mmHg
same,overall mean systolic blood pressure,healthy adult dogs [2]; [12],118 mmHg
same,overall mean systolic blood pressure,healthy adult dogs [2]; [13],117 mmHg
same,overall mean systolic blood pressure,healthy adult dogs [2]; [14],119 mmHg
same,overall mean systolic blood pressure,healthy adult dogs [2]; [15],125 mmHg
same,overall mean systolic blood pressure,healthy adult dogs [2]; [16],122 mmHg
same,overall mean systolic blood pressure,healthy adult dogs [2]; [17],120 mmHg
same,overall mean systolic blood pressure,healthy adult dogs [2]; [18],124 mmHg
same,overall mean systolic blood pressure,healthy adult dogs [2]; [19],125 mmHg
same,overall mean systolic blood pressure,healthy adult dogs [2]; [20],119 mmHg
same,overall mean systolic blood pressure,healthy adult dogs [2]; [21],123 mmHg
same,overall mean systolic blood pressure,healthy adult dogs [2]; [22],125 mmHg
same,overall mean systolic blood pressure,healthy adult dogs [2]; [23],123 mmHg
same,overall mean systolic blood pressure,healthy adult dogs [2]; [24],124 mmHg
same,overall mean systolic blood pressure,healthy adult dogs [2]; [25],122 mmHg
same,"effect on plasma aldosterone concentration, D0 versus any later time point",healthy adult dogs [3],no significant difference
same,"effect on plasma aldosterone concentration, D0 versus any later time point",healthy adult dogs [3]; listed as Glycyrrhizin,no significant impact
same,"effect on fractional potassium excretion, D0 versus any later time point",healthy adult dogs [4],no significant difference
same,"effect on fractional potassium excretion, D0 versus any later time point",healthy adult dogs [4]; listed as Glycyrrhizin,no significant impact
same,overall mean fractional potassium excretion,healthy adult dogs [4]; [5],16.54%
same,overall mean fractional potassium excretion,healthy adult dogs [4]; [6],15.74%
same,overall mean fractional potassium excretion,healthy adult dogs [4]; [7],15.59%
same,overall mean fractional potassium excretion,healthy adult dogs [4]; [8],15.06%
same,overall mean fractional potassium excretion,healthy adult dogs [4]; [9],13.33%
same,overall mean fractional potassium excretion,healthy adult dogs [4]; [10],20.02%
same,overall mean fractional potassium excretion,healthy adult dogs [4]; [11],16.54%
same,overall mean fractional potassium excretion,healthy adult dogs [4]; [12],16.02%
same,overall mean fractional potassium excretion,healthy adult dogs [4]; [13],15.56%
same,overall mean fractional potassium excretion,healthy adult dogs [4]; [14],16.02%
same,overall mean fractional potassium excretion,healthy adult dogs [4]; [15],15.72%
same,overall mean fractional potassium excretion,healthy adult dogs [4]; [16],16.87%
same,overall mean fractional potassium excretion,healthy adult dogs [4]; [17],16.09%
same,overall mean fractional potassium excretion,healthy adult dogs [4]; [18],16.27%
same,overall mean fractional potassium excretion,healthy adult dogs [4]; [19],16.48%
same,overall mean fractional potassium excretion,healthy adult dogs [4]; [20],18.08%
same,overall mean fractional potassium excretion,healthy adult dogs [4]; [21],17.48%
same,overall mean fractional potassium excretion,healthy adult dogs [4]; [22],13.15%
same,overall mean fractional potassium excretion,healthy adult dogs [4]; [23],15.64%
same,overall mean fractional potassium excretion,healthy adult dogs [4]; [24],14.93%
same,overall mean fractional potassium excretion,healthy adult dogs [4]; [25],16.48%
